{"source": "PubChem BioAssay (NCI)", "experiment_in_all_cases": "growth of human tumour cells (NCI), 48 h", "key": {"[1]": {"tested_on": "NCI-H23 lung"}, "[2]": {"tested_on": "SF-539 CNS"}, "[3]": {"tested_on": "OVCAR-3 ovarian"}, "[4]": {"tested_on": "HCT-15 colon"}, "[5]": {"tested_on": "T-47D breast"}, "[6]": {"tested_on": "MDA-MB-231 breast"}, "[7]": {"tested_on": "OVCAR-4 ovarian"}, "[8]": {"tested_on": "U251 CNS"}, "[9]": {"tested_on": "TK-10 renal"}, "[10]": {"tested_on": "HT29 colon"}, "[11]": {"tested_on": "SK-MEL-2 melanoma"}, "[12]": {"tested_on": "HS 578T breast"}, "[13]": {"tested_on": "IGROV1 ovarian"}, "[14]": {"tested_on": "HOP-62 NSCLC"}, "[15]": {"tested_on": "OVCAR-8 ovarian"}, "[16]": {"tested_on": "ACHN renal"}, "[17]": {"tested_on": "SF-295 CNS"}, "[18]": {"tested_on": "OVCAR-5 ovarian"}, "[19]": {"tested_on": "HCT-116 colon"}, "[20]": {"tested_on": "PC-3 prostate"}, "[21]": {"tested_on": "786-0 renal"}, "[22]": {"tested_on": "HCC-2998 colon"}, "[23]": {"tested_on": "RXF 393 renal"}, "[24]": {"tested_on": "CAKI-1 renal"}, "[25]": {"tested_on": "SK-OV-3 ovarian"}, "[26]": {"tested_on": "SNB-75 CNS"}, "[27]": {"tested_on": "DU-145 prostate"}, "[28]": {"tested_on": "COLO 205 colon"}, "[29]": {"tested_on": "UO-31 renal"}, "[30]": {"tested_on": "LOX IMVI melanoma"}, "[31]": {"tested_on": "K-562 leukemia"}, "[32]": {"tested_on": "SR leukemia"}, "[33]": {"tested_on": "SF-268 CNS"}, "[34]": {"tested_on": "MCF7 breast"}, "[35]": {"tested_on": "BT-549 breast"}, "[36]": {"tested_on": "NCI-H226 lung"}, "[37]": {"tested_on": "HOP-92 NSCLC"}, "[38]": {"tested_on": "SW-620 colon"}, "[39]": {"tested_on": "SNB-19 CNS"}, "[40]": {"tested_on": "NCI-H460 lung"}, "[41]": {"tested_on": "A498 renal"}, "[42]": {"tested_on": "NCI/ADR-RES ovarian"}}, "note": "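Protocol summary: plate cells (96-well), add compound at 5 concentrations, incubate 48 h, interpolate endpoints linearly. At the GI50, growth is halved. TGI is the concentration that stops growth completely.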"}
{"molecule": "Brc1cccc(/C=N/Nc2nc(N/N=C/c3cccc(Br)c3)nc(N3CCOCC3)n2)c1", "values": [{"measurement": "GI50", "setting": "[1]", "value": 4.5, "unit": "µM"}, {"measurement": "TGI", "setting": "[1]", "value": "> 100", "unit": "µM"}, {"measurement": "GI50", "setting": "[2]", "value": 3.83, "unit": "µM"}, {"measurement": "TGI", "setting": "[2]", "value": "> 100", "unit": "µM"}, {"measurement": "GI50", "setting": "[3]", "value": 3.81, "unit": "µM"}, {"measurement": "TGI", "setting": "[3]", "value": "> 100", "unit": "µM"}, {"measurement": "GI50", "setting": "[4]", "value": 0.423, "unit": "µM"}, {"measurement": "TGI", "setting": "[4]", "value": "> 100", "unit": "µM"}, {"measurement": "GI50", "setting": "[5]", "value": 3.94, "unit": "µM"}, {"measurement": "TGI", "setting": "[5]", "value": "> 100", "unit": "µM"}, {"measurement": "GI50", "setting": "[6]", "value": 3.97, "unit": "µM"}, {"measurement": "TGI", "setting": "[6]", "value": "> 100", "unit": "µM"}, {"measurement": "GI50", "setting": "[7]", "value": 4.89, "unit": "µM"}, {"measurement": "TGI", "setting": "[7]", "value": "> 100", "unit": "µM"}, {"measurement": "GI50", "setting": "[8]", "value": 4.22, "unit": "µM"}, {"measurement": "TGI", "setting": "[8]", "value": "> 100", "unit": "µM"}, {"measurement": "GI50", "setting": "[9]", "value": 8.75, "unit": "µM"}, {"measurement": "TGI", "setting": "[9]", "value": "> 100", "unit": "µM"}, {"measurement": "GI50", "setting": "[10]", "value": 0.609, "unit": "µM"}, {"measurement": "TGI", "setting": "[10]", "value": "> 100", "unit": "µM"}, {"measurement": "GI50", "setting": "[11]", "value": 2.43, "unit": "µM"}, {"measurement": "TGI", "setting": "[11]", "value": 6.47, "unit": "µM"}, {"measurement": "GI50", "setting": "[12]", "value": 3.6, "unit": "µM"}, {"measurement": "TGI", "setting": "[12]", "value": "> 100", "unit": "µM"}, {"measurement": "GI50", "setting": "[13]", "value": 2.92, "unit": "µM"}, {"measurement": "TGI", "setting": "[13]", "value": "> 100", "unit": "µM"}, {"measurement": "GI50", "setting": "[14]", "value": 8.07, "unit": "µM"}, {"measurement": "TGI", "setting": "[14]", "value": 55.6, "unit": "µM"}, {"measurement": "GI50", "setting": "[15]", "value": 5, "unit": "µM"}, {"measurement": "TGI", "setting": "[15]", "value": "> 100", "unit": "µM"}, {"measurement": "GI50", "setting": "[16]", "value": 2.21, "unit": "µM"}, {"measurement": "TGI", "setting": "[16]", "value": "> 100", "unit": "µM"}, {"measurement": "GI50", "setting": "[17]", "value": 4.94, "unit": "µM"}, {"measurement": "TGI", "setting": "[17]", "value": "> 100", "unit": "µM"}, {"measurement": "GI50", "setting": "[18]", "value": "> 100", "unit": "µM"}, {"measurement": "TGI", "setting": "[18]", "value": "> 100", "unit": "µM"}, {"measurement": "GI50", "setting": "[19]", "value": 0.78, "unit": "µM"}, {"measurement": "TGI", "setting": "[19]", "value": "> 100", "unit": "µM"}, {"measurement": "GI50", "setting": "[20]", "value": 2.9, "unit": "µM"}, {"measurement": "TGI", "setting": "[20]", "value": "> 100", "unit": "µM"}, {"measurement": "GI50", "setting": "[21]", "value": 0.529, "unit": "µM"}, {"measurement": "TGI", "setting": "[21]", "value": 4.78, "unit": "µM"}, {"measurement": "GI50", "setting": "[22]", "value": 3.06, "unit": "µM"}, {"measurement": "TGI", "setting": "[22]", "value": "> 100", "unit": "µM"}, {"measurement": "GI50", "setting": "[23]", "value": 0.159, "unit": "µM"}, {"measurement": "TGI", "setting": "[23]", "value": 1.95, "unit": "µM"}, {"measurement": "GI50", "setting": "[24]", "value": 3.52, "unit": "µM"}, {"measurement": "TGI", "setting": "[24]", "value": "> 100", "unit": "µM"}, {"measurement": "GI50", "setting": "[25]", "value": 14.7, "unit": "µM"}, {"measurement": "TGI", "setting": "[25]", "value": 64, "unit": "µM"}, {"measurement": "GI50", "setting": "[26]", "value": 4.54, "unit": "µM"}, {"measurement": "TGI", "setting": "[26]", "value": 29.6, "unit": "µM"}, {"measurement": "GI50", "setting": "[27]", "value": 1.31, "unit": "µM"}, {"measurement": "TGI", "setting": "[27]", "value": "> 100", "unit": "µM"}, {"measurement": "GI50", "setting": "[28]", "value": 1.24, "unit": "µM"}, {"measurement": "TGI", "setting": "[28]", "value": "> 100", "unit": "µM"}, {"measurement": "GI50", "setting": "[29]", "value": 1.01, "unit": "µM"}, {"measurement": "TGI", "setting": "[29]", "value": "> 100", "unit": "µM"}, {"measurement": "GI50", "setting": "[30]", "value": 2.66, "unit": "µM"}, {"measurement": "TGI", "setting": "[30]", "value": "> 100", "unit": "µM"}, {"measurement": "GI50", "setting": "[31]", "value": 0.336, "unit": "µM"}, {"measurement": "TGI", "setting": "[31]", "value": "> 100", "unit": "µM"}, {"measurement": "GI50", "setting": "[32]", "value": 0.16, "unit": "µM"}, {"measurement": "TGI", "setting": "[32]", "value": 2.29, "unit": "µM"}, {"measurement": "GI50", "setting": "[33]", "value": 8.4, "unit": "µM"}, {"measurement": "TGI", "setting": "[33]", "value": "> 100", "unit": "µM"}, {"measurement": "GI50", "setting": "[34]", "value": 2.64, "unit": "µM"}, {"measurement": "TGI", "setting": "[34]", "value": "> 100", "unit": "µM"}, {"measurement": "GI50", "setting": "[35]", "value": 3.54, "unit": "µM"}, {"measurement": "TGI", "setting": "[35]", "value": 66.9, "unit": "µM"}, {"measurement": "GI50", "setting": "[36]", "value": 2.46, "unit": "µM"}, {"measurement": "TGI", "setting": "[36]", "value": 8.51, "unit": "µM"}, {"measurement": "GI50", "setting": "[37]", "value": 1.24, "unit": "µM"}, {"measurement": "TGI", "setting": "[37]", "value": 8.92, "unit": "µM"}, {"measurement": "GI50", "setting": "[38]", "value": 0.825, "unit": "µM"}, {"measurement": "TGI", "setting": "[38]", "value": "> 100", "unit": "µM"}, {"measurement": "GI50", "setting": "[39]", "value": 12.9, "unit": "µM"}, {"measurement": "TGI", "setting": "[39]", "value": 58.7, "unit": "µM"}, {"measurement": "GI50", "setting": "[40]", "value": 3.43, "unit": "µM"}, {"measurement": "TGI", "setting": "[40]", "value": "> 100", "unit": "µM"}, {"measurement": "GI50", "setting": "[41]", "value": 0.137, "unit": "µM"}, {"measurement": "TGI", "setting": "[41]", "value": 4.26, "unit": "µM"}, {"measurement": "GI50", "setting": "[42]", "value": 3.25, "unit": "µM"}, {"measurement": "TGI", "setting": "[42]", "value": "> 100", "unit": "µM"}]}
